Assay results published in US20260069606A1, “Oxidative Stress and Diabetes Treatment with Cobinamide” (The Regents of the University of California, priority 2022, published 2026).

Columns and labels:
[1] = Reaction with superoxide, spin trap DMPO / EPR; assay type: biochemical
Protocol: The reaction of cobinamide with O2·^− was studied in two different systems, generating O2·^− using a hypoxanthine-xanthine oxidase system.
The second system contained 1 mM hypoxanthine, 0.04 U xanthine oxidase, and 0.26 M DMPO in phosphate-buffered saline, pH 7.4 (PBS). Samples were transferred to a capillary tube, and introduced into the EPR cavity of a Magnettech MiniScope MS5000. DMPO-OH signals arising from the DMPO-OOH spin adduct were measured at 37° C. for 5 min. The area under the DMPO-OOH peak was calculated using Origin 2022b software. To avoid variability across runs, signal amplitudes were normalized to the intensity of simultaneously recorded Mn reference signals originating from ZnS:Mn^2+ fixed within the EPR cavity.
In both systems, the experiments were conducted in the absence and presence of the indicated concentrations of Cbi(III) or Chi(II) 65.
The reaction of Chi(III) with O2·^− was also measured using the spin-trap DMPO, which yields a distinctive electron paramagnetic resonance (EPR) spectrum on reacting with O2·^−. Sub-micromolar concentrations of cobinamide reduced the EPR signal in a dose-dependent fashion, yielding an apparent rate constant of 7.5×10^7 M^−1 s^−1 for the reaction of Chi(III) with O2·^− (FIG. 1B).

[2] = test system: H9c2 cells; experiment: Mitochondrial membrane potential, JC-1 red to green fluorescence; assay type: cell-based, rat
Protocol: (§1) FIGS. 3A-3H. […] FIGS. 3A-3B. […] FIG. 3A. […] FIG. 3B. […] FIGS. 3C-3D. […] FIG. 3D. […] FIGS. 3E-3F. […] FIG. 3E. Representative blots are shown. […] FIG. 3F. […] FIG. 3G. […] FIG. 3H.
The cells were then washed once with PBS, placed back in the DMEM experimental medium, and incubated with the indicated drugs for 30 min. At the end of the incubation period, nuclei of both the MitoSOX Red- and JC-1-treated cells were stained with […] 4′,6-diamidino-2-phenyl-indole (DAPI) for 3 min, washed once with PBS, and returned to the DMEM experimental medium. The cover slips were removed from the wells, mounted in the DMEM experimental medium, and red (MitoSOX Red and JC-1 aggregates), green (JC-1 monomers), and blue (DAPI) fluorescence intensity was assessed using a Keyence BZ-X700 fluorescence microscope at the following paired excitation/emission wavelengths, respectively: 560/630, 490/525, and 360/460 nm.
Increased mitochondrial O2·^− by rotenone would be expected to reduce the mitochondrial membrane potential (ΔΨm), due in part to activation of uncoupling proteins^39. […] Rotenone caused an almost complete loss of red fluorescence and a striking increase in green fluorescence in the cells, indicating a marked decrease in ΔΨm (FIGS. 3C-3D).

[3] = test system: Jun N-terminal kinase (JNK) phosphorylation in H9c2 cells; experiment: H2O2-induced JNK phosphorylation, immunoblotting; assay type: cell-based, rat
From the text: as §1

[4] = test system: COS-7 cells
Protocol: as §1
Finally, whether cobinamide could alleviate the effects of oxidative stress induced by yet another mechanism in a different cell type was tested using paraquat-treated COS-7 cells. Paraquat generates O2·^− through a redox cycling mechanism and increases both intracellular O2·^− and H2O2^42.

[5] = Tolerability in non-diabetic and streptozotocin-diabetic mice (weight, liver and renal function); assay type: in vivo
From the text: The water was replenished twice a week.
Over the three-month treatment period, the non-diabetic mice gained an average of 4.1±0.8 g. while the diabetic mice lost an average of 0.3 g, with wide variation in weight change among the latter mice.

[6] = mouse, in vivo
Protocol: (§2) Male C57BL/6NHsd mice (20 weeks old) were housed three to four animals per cage in a temperature-controlled environment with a 12-h light/dark cycle and fed standard rodent chow with ad libitum access to food and water. After one week of acclimatization, mice weighing 30±3 g were injected intraperitoneally for five consecutive days with either saline (n=20) or 50 mg/kg streptozotocin (n=20) 69. […] The 16 diabetic mice and a corresponding number of the saline-injected, non-diabetic mice were split randomly in half to receive either plain drinking water or histidyl-cobinamide in the drinking water. The four groups of animals are referred to as: diabetic vehicle (D-Veh); diabetic, cobinamide-treated (D-Cbi); non-diabetic, vehicle (ND-Veh); and non-diabetic, cobinamide-treated (ND-Cbi). The histidyl-cobinamide concentration was 1 mM for the ND-Cbi mice, but because the diabetic mice drank more than the non-diabetic mice, the cobinamide concentration for the D-Cbi mice was decreased accordingly. The water was replenished twice a week.
(§3) After three months of treatment, the mice were weighed, fasted for 6 h, and then underwent an intraperitoneal glucose tolerance test (IPGTT) using 2 g/kg of a 20% glucose solution. Blood glucose concentrations were measured just before the glucose injection (time 0, fasting specimen) and at 15, 30, 60, and 120 min following the injection. […] Two days later, the mice were euthanized by inducing deep anesthesia with 200 mg/kg ketamine and 40 mg/kg xylazine administered by intraperitoneal injection, followed by exsanguination via an open cardiac puncture.
(§4) Type I diabetic mice were generated using streptozotocin, and then provided cobinamide in the drinking water for three months.

[7] = second order; literature values; cited from earlier work
[8] = Plasma cobinamide concentration in mice given cobinamide in drinking water; settings: discussion summary
Protocol: as §2, §3, §4

Structure (SMILES): C/C1=C2/[N-][C@H]([C@H](CC(N)=O)[C@@]2(C)CCC(=O)NC[C@@H](C)O)[C@]2(C)N=C(/C(C)=C3N=C(/C=C4N=C1[C@@H](CCC(N)=O)C\4(C)C)[C@@H](CCC(N)=O)[C@]\3(C)CC(N)=O)[C@@H](CCC(N)=O)[C@]2(C)CC(N)=O.[Co+3] [cobinamide, aquohydroxo-cobinamide]
- Apparent rate constant, reaction with O2·^− [1]: 7.5e+07 M⁻¹ s⁻¹
- JC-1 red to green fluorescence ratio (ΔΨm) in rotenone-treated cells ([2]; H9c2, 5 μM rotenone 30 min, drugs at 2.5 μM): restored the ratio of red to green fluorescence
- JC-1 red to green fluorescence ratio, drug alone ([2]; H9c2, vehicle-treated cells without rotenone, 2.5 μM): no change
- JNK phosphorylation in H2O2-treated cells ([3]; H9c2, 100 μM H2O2 30 min, drugs at 100 μM): reduced JNK phosphorylation to a level that was indistinguishable from vehicle-treated cells
- JNK phosphorylation or total cellular JNK in the absence of H2O2 ([3]; H9c2, drug alone): neither Cbi(III), Cbi(II) nor the other three drugs affected JNK phosphorylation
- Cell growth of paraquat-treated cells ([4]; COS-7, 1 mM paraquat 3 h, 100 μM drug, counted 48 h later): ~80 % of the control value
- Effect on cell growth, drug alone ([4]; COS-7, no paraquat): no effect on cell growth
- Average weight gain of cobinamide-treated diabetic mice ([5]; mouse, in vivo): 0.63 g
- Effect on weight ([5]; mouse, in vivo): did not significantly affect weight
- Liver function and renal function tests ([5]; mouse, in vivo): no effect
- Tolerability ([5]; non-diabetic and diabetic mice, three months in drinking water): well tolerated
- Plasma cobinamide concentration, diabetic mice [6]: 0.55 ± 0.36 µM
- Plasma cobinamide concentration, non-diabetic mice [6]: 0.11 ± 0.07 µM
- Rate constant, reaction with nitric oxide (·NO), published [7]: 2.4 × 10^8 (51) M^−1 s^−1
- Concentration in the plasma of mice that received cobinamide in drinking water [8]: 100 to 500 nM
